Assay results taken from the supplement of paper PMC10307832.

Experiments:
Test in all cases: relative viability (nuclei count vs DMSO), 5 days (fraction); higher = more cells survive
[1] = compound: COC1=CC=C(C=C1)CN2C=CC3=C2C=C(C=C3)C(=O)NO + CS(=O)(=O)CCNCc1ccc(-c2ccc3ncnc(Nc4ccc(OCc5cccc(F)c5)c(Cl)c4)c3c2)o1 [Lapatinib] (partner 2 µM)
How it was run: (§1)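 Lung cancer cell lines were pin-tool dosed in 1536-well plates on the day after seeding, with either a lone drug or a fixed anchor-drug dose plus five library-drug doses (not always all listed) in √10 steps. Nuclei were counted on 4× images after 5 days. Relative viability is the ratio of treated-well to vehicle-well nuclei counts, with each value a median of duplicate plates.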

[2] = compound: C[C@]1(c2nc3c(C(N)=O)cccc3[nH]2)CCCN1 [Veliparib] + CCNC(=O)c1noc(-c2cc(C(C)C)c(O)cc2O)c1-c1ccc(CN2CCOCC2)cc1 [Luminespib] (partner 0.01 µM)
How it was run: as §1

[3] = compound: C[C@]1(c2nc3c(C(N)=O)cccc3[nH]2)CCCN1 [Veliparib] + Cc1nc(Nc2ncc(C(=O)Nc3c(C)cccc3Cl)s2)cc(N2CCN(CCO)CC2)n1 [Dasatinib] (partner 0.075 µM)
How it was run: as §1

[4] = compound: COC1=CC=C(C=C1)CN2C=CC3=C2C=C(C=C3)C(=O)NO + CC1(C)CCC(c2ccc(Cl)cc2)=C(CN2CCN(c3ccc(C(=O)NS(=O)(=O)c4ccc(N[C@H](CCN5CCOCC5)CSc5ccccc5)c(S(=O)(=O)C(F)(F)F)c4)cc3)CC2)C1 [Navitoclax] (partner 0.5 µM)
How it was run: as §1

Row | Cell Line | relative viability ([1]; first compound 0.08 µM) | relative viability ([1]; first compound 0.253 µM) | relative viability ([1]; first compound 0.8 µM) | relative viability ([1]; first compound 2.53 µM) | relative viability ([1]; first compound 8 µM) | relative viability ([2]; first compound 0.02 µM) | relative viability ([2]; first compound 0.06325 µM) | relative viability ([2]; first compound 0.2 µM) | relative viability ([2]; first compound 0.6325 µM) | relative viability ([2]; first compound 2 µM) | relative viability ([3]; first compound 0.02 µM) | relative viability ([3]; first compound 0.06325 µM) | relative viability ([3]; first compound 0.2 µM) | relative viability ([3]; first compound 0.6325 µM) | relative viability ([3]; first compound 2 µM) | relative viability ([4]; first compound 0.08 µM) | relative viability ([4]; first compound 0.253 µM) | relative viability ([4]; first compound 0.8 µM) | relative viability ([4]; first compound 2.53 µM) | relative viability ([4]; first compound 8 µM)
1 | NCI-H2126 | 0.459 | 0.746 | 0.747 | 0.79 | 0.71 | 0.875 | 0.908 | 0.839 | 0.901 | 0.95 | 0.618 | 0.539 | 0.612 | 0.658 | 0.668 | 0.824 | 0.931 | 0.849 | 0.848 | 0.886
2 | NCI-H838 | – | 1.01 | 0.98 | 1.03 | 0.873 | 0.287 | 0.32 | 0.302 | 0.295 | 0.25 | 0.269 | 0.287 | 0.256 | 0.246 | 0.326 | – | 1.22 | 1.17 | 1.22 | 1.09
3 | EPLC-272H | 0.199 | 0.974 | 1.04 | 0.974 | 0.728 | 0.264 | 0.526 | 0.485 | 0.0856 | 0.179 | 0.291 | 0.367 | 0.323 | 0.325 | 0.36 | 0.7 | 1.06 | 1.13 | 1.05 | 1.18
4 | NCI-H1975 | 0.691 | 0.845 | 0.832 | 0.875 | 0.78 | 0.118 | 0.233 | 0.142 | 0.31 | 0.18 | 0.336 | 0.37 | 0.331 | 0.368 | 0.372 | 0.979 | 1.17 | 1.26 | 1.06 | 1.16
5 | NCI-H3122 | 0.959 | 0.934 | 1.03 | 1.04 | 0.959 | 0.0959 | 0.0908 | 0.097 | 0.0912 | 0.0755 | 0.674 | 0.792 | 0.84 | 0.766 | 0.572 | 1.01 | 1 | 1.02 | 1.02 | 1.03
6 | NCI-H1650 | 0.254 | 0.76 | 0.847 | 0.86 | 0.451 | – | 0.216 | 0.194 | 0.199 | 0.217 | – | 0.319 | 0.3 | 0.271 | 0.223 | 1.07 | 1.32 | 1.17 | 1.18 | 0.925
7 | PC-14 | 0.199 | 0.349 | 0.38 | 0.384 | 0.373 | – | 0.147 | 0.198 | 0.151 | 0.145 | 0.214 | 0.26 | 0.319 | 0.281 | 0.317 | 0.869 | 1.04 | 1.01 | 1.14 | 1.02
8 | COR-L 105 | – | 0.367 | 0.37 | 0.341 | 0.296 | 0.794 | 0.743 | 0.831 | 0.59 | 0.851 | 0.355 | 0.273 | 0.352 | 0.331 | 0.324 | – | 1.15 | 0.844 | 0.851 | 0.551
9 | LU99A | – | 0.92 | 0.961 | 0.957 | 0.891 | 0.284 | 0.25 | 0.191 | 0.228 | 0.237 | 0.592 | 0.51 | 0.612 | 0.517 | 0.431 | – | 0.787 | 0.803 | 0.847 | 0.878
10 | NCI-H1792 | 0.867 | 0.906 | 0.824 | 0.915 | 0.836 | 0.509 | 0.361 | 0.508 | 0.429 | 0.331 | 0.79 | 0.79 | 0.822 | 0.707 | 0.717 | 0.574 | 0.55 | 0.481 | 0.646 | 0.601
11 | NCI-H1651 | 0.425 | 0.886 | 0.857 | 0.767 | 0.746 | 0.724 | 0.806 | 0.88 | 0.486 | 0.651 | 0.296 | 0.403 | 0.383 | 0.4 | 0.348 | 0.926 | 1.14 | 1.07 | 0.987 | 0.92
12 | LOU-NH91 | 0.561 | 0.745 | 0.825 | 0.733 | 0.725 | 0.339 | 0.401 | 0.352 | 0.285 | 0.342 | 0.529 | 0.522 | 0.537 | 0.544 | 0.53 | 0.419 | 0.677 | 0.739 | 0.725 | 0.576
13 | NCI-H1395 | 0.674 | 0.851 | 0.937 | 0.93 | 0.778 | 0.586 | 0.624 | 0.648 | 0.659 | 0.542 | 0.379 | 0.381 | 0.46 | 0.414 | 0.437 | 0.688 | 1.29 | 1.12 | 1.4 | 0.992
14 | COR-L23 | 0.736 | 1.07 | 0.937 | 1.02 | 0.84 | 0.696 | 0.523 | 0.558 | 0.538 | 0.433 | 0.428 | 0.434 | 0.361 | 0.425 | 0.471 | 0.77 | 0.945 | 1.04 | 1.11 | 1.01
15 | NCI-H1793 | 0.343 | 0.751 | 0.688 | 0.705 | 0.598 | 0.196 | 0.174 | 0.177 | 0.169 | 0.181 | 0.398 | 0.448 | 0.408 | 0.277 | 0.448 | 0.461 | 0.672 | 0.479 | 0.406 | 0.424
16 | 201T | 1 | 1.03 | 1.06 | 1.05 | 0.969 | 0.995 | 1.11 | 1.07 | 1.1 | 1.11 | 0.529 | 0.572 | 0.537 | 0.614 | 0.52 | 1.19 | 1.24 | 1.22 | 1.23 | 1.19
17 | LK-2 | – | 0.909 | 0.932 | 0.955 | 0.82 | – | 0.184 | 0.202 | 0.19 | 0.193 | – | 0.266 | 0.258 | 0.325 | 0.291 | – | 0.906 | 1 | 0.958 | 0.747
18 | A-427 | – | 1.07 | 1.1 | 0.995 | 0.909 | – | 0.908 | 0.72 | 1.12 | 0.931 | – | 0.714 | 0.699 | 0.657 | 0.539 | – | 1 | 1.02 | 1.04 | 0.806
19 | LCLC-97TM1 | – | 0.872 | 1.26 | 0.911 | 0.806 | 0.729 | 0.729 | 0.884 | 0.671 | 0.678 | 0.848 | 0.845 | 0.895 | 0.653 | 0.864 | – | 0.505 | 0.472 | 0.42 | 0.412
20 | HOP-62 | 0.225 | 1.1 | 1.08 | 0.997 | 0.973 | 0.831 | 0.858 | 0.783 | 0.669 | 0.836 | 0.634 | 0.549 | 0.705 | 0.648 | 0.651 | 0.547 | 0.984 | 1.02 | 1.08 | 1.02
21 | NCI-H1915 | 0.301 | 0.977 | 1.01 | 1 | 0.958 | 0.799 | 0.6 | 0.647 | 0.553 | 0.596 | 0.307 | 0.329 | 0.301 | 0.314 | 0.297 | 0.724 | 0.778 | 0.799 | 0.807 | 0.781
22 | CAL-12T | 0.215 | – | 0.715 | 0.755 | 0.605 | 0.348 | 0.147 | 0.522 | 0.266 | 0.155 | 0.287 | 0.354 | 0.386 | 0.308 | 0.468 | 0.964 | 1.29 | 1.25 | 1.24 | 1.23
23 | NCI-H1437 | 0.23 | 0.84 | 0.877 | 0.886 | 0.8 | 0.978 | 1.1 | 1.07 | 1.1 | 1.09 | 0.212 | 0.36 | 0.424 | 0.421 | 0.249 | 0.898 | 1.08 | 1.1 | 1.15 | 1.05
24 | UMC-11 | 0.374 | 1.14 | 1.05 | 1.02 | 0.916 | 1.11 | 0.994 | 1.02 | 0.958 | 0.975 | 0.505 | 0.451 | 0.483 | 0.452 | 0.542 | 0.197 | 0.341 | 0.316 | 0.317 | 0.339
